From patent US9914730B2, “Azaquinazoline inhibitors of Atypical protein Kinase C” (Ignyta, Inc., priority 2012, dated 2018)

target: T1, full-length human PKCι (Homo sapiens, UniProt P41743); test: PKCι IC50 IMAP assay, full-length PKCι at 150 μM ATP; assay type: biochemical; details: read-out: IC50 in IMAP assay against full length PKCi at 150 μM ATP
T1 construct: Recombinant, full-length human PKCι expressed in Sf21 insect cells is also commercially available; purchased; host or cells: Sf21 insect cells
T1 sequence (P41743 1-596): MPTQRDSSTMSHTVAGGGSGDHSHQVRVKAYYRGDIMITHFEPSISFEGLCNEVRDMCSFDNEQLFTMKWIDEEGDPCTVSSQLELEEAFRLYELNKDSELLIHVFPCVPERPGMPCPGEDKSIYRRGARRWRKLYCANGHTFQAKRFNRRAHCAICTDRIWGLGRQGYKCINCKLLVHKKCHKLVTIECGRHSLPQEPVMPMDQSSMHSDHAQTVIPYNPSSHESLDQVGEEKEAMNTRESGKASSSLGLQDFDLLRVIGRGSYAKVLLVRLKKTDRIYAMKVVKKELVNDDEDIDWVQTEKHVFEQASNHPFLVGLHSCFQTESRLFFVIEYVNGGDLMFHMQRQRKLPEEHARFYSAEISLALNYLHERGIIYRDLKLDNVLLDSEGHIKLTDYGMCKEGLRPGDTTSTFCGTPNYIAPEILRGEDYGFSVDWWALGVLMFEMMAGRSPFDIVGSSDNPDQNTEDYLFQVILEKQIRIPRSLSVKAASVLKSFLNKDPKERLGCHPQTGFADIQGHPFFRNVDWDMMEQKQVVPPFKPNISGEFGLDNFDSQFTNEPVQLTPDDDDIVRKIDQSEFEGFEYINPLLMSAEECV
How it was run: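 Full-length hPKCι (Sf21) ~15 pM; 5FAM-peptide 100 nM; ATP 150 μM (5× KM^APP); tris pH7.5/MgCl2/EGTA/DTT/Triton, 4% DMSO; 60 min RT; IMAP stop, 2 h; FP 485/530 nm; IC50 from % inhibition curves.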

| SMILES | IC50 |
| --- | --- |
| Fc1ccc(Nc2cc(-c3nc(N4CCNCC4)c4c(C5CC5)cncc4n3)ccn2)c(Cl)c1 [Example 570, (2-Chloro-4-fluoro-phenyl)-[4-(5-cyclopropyl-4-piperazin-1-yl-pyrido[3,4-d]pyrimidin-2-yl)-pyridin-2-yl]-amine] | < 100 nM |
| COc1cccc(Nc2cc(-c3nc(N4CCNCC4)c4c(C5CC5)cncc4n3)ccn2)c1 [Example 571, [4-(5-Cyclopropyl-4-piperazin-1-yl-pyrido[3,4-d]pyrimidin-2-yl)-pyridin-2-yl]-(3-methoxy-phenyl)-amine] | < 100 nM |
| Cc1ccc(Nc2cc(-c3nc(N4CCNCC4)c4c(C5CC5)cncc4n3)ccn2)c(Cl)c1 [Example 572, (2-Chloro-4-methyl-phenyl)-[4-(5-cyclopropyl-4-piperazin-1-yl-pyrido[3,4-d]pyrimidin-2-yl)-pyridin-2-yl]-amine] | < 100 nM |
| Cc1ccc(Nc2cc(-c3nc(N4CCNCC4)c4c(C5CC5)cncc4n3)ccn2)c(C)c1 [Example 573, [4-(5-Cyclopropyl-4-piperazin-1-yl-pyrido[3,4-d]pyrimidin-2-yl)-pyridin-2-yl]-(2,4-dimethyl-phenyl)-amine] | < 100 nM |
| Cc1cccc(Nc2cc(-c3nc(N4CCNCC4)c4c(C5CC5)cncc4n3)ccn2)c1F [Example 574, [4-(5-Cyclopropyl-4-piperazin-1-yl-pyrido[3,4-d]pyrimidin-2-yl)-pyridin-2-yl]-(2-fluoro-3-methyl-phenyl)-amine] | < 100 nM |
| Cc1ccc(Nc2cc(-c3nc(N4CCNCC4)c4c(C5CC5)cncc4n3)ccn2)c(F)c1 [Example 575, [4-(5-Cyclopropyl-4-piperazin-1-yl-pyrido[3,4-d]pyrimidin-2-yl)-pyridin-2-yl]-(2-fluoro-4-methyl-phenyl)-amine] | < 100 nM |
| Fc1ccc(Cl)c(Nc2cc(-c3nc(N4CCNCC4)c4c(C5CC5)cncc4n3)ccn2)c1 [Example 576, (2-Chloro-5-fluoro-phenyl)-[4-(5-cyclopropyl-4-piperazin-1-yl-pyrido[3,4-d]pyrimidin-2-yl)-pyridin-2-yl]-Amine] | < 100 nM |
| Cc1ccc(Cl)c(Nc2cc(-c3nc(N4CCNCC4)c4c(C5CC5)cncc4n3)ccn2)c1 [Example 577, (2-Chloro-5-methyl-phenyl)-[4-(5-cyclopropyl-4-piperazin-1-yl-pyrido[3,4-d]pyrimidin-2-yl)-pyridin-2-yl]-Amine] | < 100 nM |
| Fc1cccc(Nc2cc(-c3nc(N4CCNCC4)c4c(C5CC5)cncc4n3)ccn2)c1Cl [Example 578, (2-Chloro-3-fluoro-phenyl)-[4-(5-eyclopropyl-4-piperazin-1-yl-pyrido[3,4-d]pyrimidin-2-yl)-pyridin-2-yl]-Amine] | < 100 nM |
| COc1cc2nccc(-c3nc(N4CCNCC4)c4c(C5CC5)cncc4n3)c2cc1OC [Example 579, 5-Cyclopropyl-2-(6,7-dimethoxy-quinolin-4-yl)-4-piperazin-1-yl-pyrido[3,4-d]pyrimidine] | 10000 to 40000 nM |
| COc1ccc(F)c(Nc2cc(-c3nc(N4CCNCC4)c4c(C5CC5)cncc4n3)ccn2)c1 [Example 580, [4-(5-Cyclopropyl-4-piperazin-1-yl-pyrido[3,4-d]pyrimidin-2-yl)-pyridin-2-yl]-(2-fluoro-5-methoxy-phenyl)-amine] | < 100 nM |
| CC(=O)Nc1cc(-c2nc(N3CCNCC3)c3c(C4CC4)cncc3n2)ccn1 [Example 581, N-[4-(5-Cyclopropyl-4-piperazin-1-yl-pyrido[3,4-d]pyrimidin-2-yl)-pyridin-2-yl]-acetamide] | < 100 nM |
| Nc1cc(-c2nc(N3CCNCC3)c3c(C4CC4)cncc3n2)ccn1 [Example 582, 4-(5-Cyclopropyl-4-piperazin-1-yl-pyrido[3,4-d]pyrimidin-2-yl)-pyridin-2-ylamine] | < 100 nM |
| CC(C)C(=O)Nc1cc(-c2nc(N3CCNCC3)c3c(C4CC4)cncc3n2)ccn1 [Example 583, N-[4-(5-Cyclopropyl-4-piperazin-1-yl-pyrido[3,4-d]pyrimidin-2-yl)-pyridin-2-yl]-isobutyramide] | < 100 nM |
| O=C(Nc1cc(-c2nc(N3CCNCC3)c3c(C4CC4)cncc3n2)ccn1)C1CC1 [Example 584, Cyclopropane-carboxylic acid [4-(5-cyclopropyl-4-piperazin-1-yl-pyrido[3,4-d]pyrimidin-2-yl)-pyridin-2-yl]-amide] | < 100 nM |
| FC1(F)CC(Nc2cc(-c3nc(N4CCNCC4)c4c(C5CC5)cncc4n3)ccn2)C1 [Example 585, [4-(5-Cyclopropyl-4-piperazin-1-yl-pyrido[3,4-d]pyrimidin-2-yl)-pyridin-2-yl]-(3,3-difluorocyclo-butyl)-amine] | < 100 nM |
| C[C@@H](Nc1cc(-c2nc(N3CCNCC3)c3c(C4CC4)cncc3n2)ccn1)c1ccccc1 [Example 586, [4-(5-Cyclopropyl-4-piperazin-1-yl-pyrido[3,4-d]pyrimidin-2-yl)-pyridin-2-yl]-((R)-1-phenyl-ethyl)-amine] | < 100 nM |
| C[C@H](Nc1cc(-c2nc(N3CCNCC3)c3c(C4CC4)cncc3n2)ccn1)c1ccccc1 [Example 587, [4-(5-Cyclopropyl-4-piperazin-1-yl-pyrido[3,4-d]pyrimidin-2-yl)-pyridin-2-yl]-((S)-1-phenyl-ethyl)-amine] | < 100 nM |
| COc1cccc(Nc2cc(-c3nc(N4CCNCC4)c4c(C5CC5)cncc4n3)ccn2)n1 [Example 588, [4-(5-Cyclopropyl-4-piperazin-1-yl-pyrido[3,4-d]pyrimidin-2-yl)-pyridin-2-yl]-(6-methoxy-pyridin-2-yl)-amine] | < 100 nM |
| COc1cccc(Nc2cc(-c3nc(N4CCNCC4)c4c(C5CC5)cncc4n3)ccn2)c1F [Example 589, [4-(5-Cyclopropyl-4-piperazin-1-yl-pyrido[3,4-d]pyrimidin-2-yl)-pyridin-2-yl]-(2-fluoro-3-methoxy-phenyl)-amine] | < 100 nM |

Now from value to molecule:

| IC50 | SMILES |
| --- | --- |
| < 100 nM | COc1cc(F)c(Nc2cc(-c3nc(N4CCNCC4)c4c(C5CC5)cncc4n3)ccn2)c(F)c1 [Example 590, [4-(5-Cyclopropyl-4-piperazin-1-yl-pyrido[3,4-d]pyrimidin-2-yl)-pyridin-2-yl]-(2,6-difluoro-4-methoxy-phenyl)-amine] |
| < 100 nM | COc1cccc(Nc2cc(-c3nc(N4CCNCC4)c4c(C5CC5)cncc4n3)ccn2)c1C [Example 591, [4-(5-Cyclopropyl-4-piperazin-1-yl-pyrido[3,4-d]pyrimidin-2-yl)-pyridin-2-yl]-(3-methoxy-2-methyl-phenyl)-amine] |
| < 100 nM | COc1ccc(Cl)c(Nc2cc(-c3nc(N4CCNCC4)c4c(C5CC5)cncc4n3)ccn2)c1 [Example 592, (2-Chloro-5-methoxy-phenyl)-[4-(5-cyclopropyl-4-piperazin-1-yl-pyrido[3,4-d]pyrimidin-2-yl)-pyridin-2-yl]-amine] |
| < 100 nM | Fc1ccc(Nc2cc(-c3nc(N4CCNCC4)c4c(C5CC5)cncc4n3)ccn2)cc1 [Example 594, [4-(5-Cyclopropyl-4-piperazin-1-yl-pyrido[3,4-d]pyrimidin-2-yl)-pyridin-2-yl]-(4-fluoro-phenyl)-amine] |
| < 100 nM | FC(F)(F)c1ccc(Nc2cc(-c3nc(N4CCNCC4)c4c(C5CC5)cncc4n3)ccn2)cc1 [Example 595, [4-(5-Cyclopropyl-4-piperazin-1-yl-pyrido[3,4-d]pyrimidin-2-yl)-pyridin-2-yl]-(4-trifluoromethyl-phenyl)-amine] |
| 10000 to 40000 nM | FC(F)(F)c1ccc(Cl)c(Nc2cc(-c3nc(N4CCNCC4)c4c(C5CC5)cncc4n3)ccn2)c1 [Example 597, (2-Chloro-5-trifluoromethyl-phenyl)-[4-(5-cyclopropyl-4-piperazin-1-yl-pyrido[3,4-d]pyrimidin-2-yl)-pyridin-2-yl]-amine] |
| < 100 nM | CC(C)(Nc1cc(-c2nc(N3CCNCC3)c3c(C4CC4)cncc3n2)ccn1)C(F)(F)F [Example 598, [4-(5-Cyclopropyl-4-piperazin-1-yl-pyrido[3,4-d]pyrimidin-2-yl)-pyridin-2-yl]-(2,2,2-trifluoro-1,1-dimethyl-ethyl)-amine] |
| < 100 nM | Fc1ccc(Nc2cc(-c3nc(N4CCNCC4)c4c(C5CC5)cncc4n3)ccn2)cc1F [Example 599, [4-(5-Cyclopropyl-4-piperazin-1-yl-pyrido[3,4-d]pyrimidin-2-yl)-pyridin-2-yl]-(3,4-difluoro-phenyl)-amine] |
| 1000 to 10000 nM | Cn1ccc(Nc2cc(-c3nc(N4CCNCC4)c4c(C5CC5)cncc4n3)ccn2)n1 [Example 600, [4-(5-Cyclopropyl-4-piperazin-1-yl-pyrido[3,4-d]pyrimidin-2-yl)-pyridin-2-yl]-(l-methyl-1H-pyrazol-3-yl)-amine] |
| < 100 nM | FC1CCC(Nc2cc(-c3nc(N4CCNCC4)c4c(C5CC5)cncc4n3)ccn2)CC1 (stereo not drawn) [Example 601, [4-(5-Cyclopropyl-4-piperazin-1-yl-pyrido[3,4-d]pyrimidin-2-yl)-pyridin-2-yl]-(4-fluorocyclohexyl)-amine] |
